{"source": "patent US20230331792A1", "about": "“NEW MULTI-FUNCTIONAL OLIGOPEPTIDES” (ENLITISA (SHANGHAI) PHARMACEUTICAL CO., LTD., priority 2019, published 2023)", "key": {"SD rats": {"system": "SD rats", "assay": "Experimental gastric ulcer model (anhydrous alcohol)", "format": "in vivo", "experimental": "SPF grade SD rats were used in this experiment, with 10 rats in each group. According to an evaluation method of health food for gastric ulcer issued by Chinese State Food and Drug Administration, the protective effect of Compound B on acute gastric ulcers induced by anhydrous alcohol was observed after continuous gavage for 30 days.\nOmeprazole enteric-coated capsules (20 mg/capsule; Heilongjiang Norgas Pharmaceutical Co., Ltd., China) were opened and the powder was dissolved in water to make a 2 mg/mL solution. Compound B (see Example 7 above) powder was dissolved in water to make two solutions with concentrations of 0.25 mg/mL and 0.75 mg/mL. Administration volumes were […].\nAll drugs were administrated as shown in Table 13 by oral gavage for 30 consecutive days, once per day. The rats had free access to water. On the 30th day, rats were fasted for 24 hours after the last drug administration. On the 31st day, 1.0 mL/rat of absolute ethanol was given by gavage to each rat in all of the experimental groups except the control group.\n1 hour later, all of the rats were sacrificed and dissected to expose the intact stomach, followed by ligation of the pylorus. 10% formaldehyde solution was administered into the stomach by perfusion and fixed for 20 minutes. The stomach was dissociated after fixation and cut open along the greater curvature. The stomach contents were washed off the lining with saline to reveal the gastric mucosa.\nThe length and width of gastric mucosal bleeding were measured with a Vernier calliper under a stereo microscope or by the naked eye."}, "patient": {"system": "patient", "assay": "Radiation stomatitis, patient case", "format": "in vivo, human", "details": "0.5 mg/mL solution as mouthwash", "experimental": "A patient was diagnosed with oral cancer and underwent radiation therapy.\nAfter 3 weeks, oral mucositis developed with ulcers on the mucous membrane lining the mouth, throat and esophagus. It was very painful and the patient was not able to eat.\nThe patient then used Compound B solution (0.5 mg/mL; prepared as described in Example 38 above) as a mouthwash, as frequently as needed."}}, "note": "Square brackets hold non-standard residues; d marks the D form. Ends that are not written are not given here. Dopa = N[C@@H](Cc1ccc(O)c(O)c1)C(=O)O; Hyp = O=C(O)[C@@H]1C[C@@H](O)CN1"}
{"substance": "{[(Ala-Lys-Pro-Ser-Tyr-Hyp-Hyp-Thr-DOPA-Lys)2-Lys]2-Lys}2-Lys (AKPSY[Hyp][Hyp]T[Dopa]KKKK; also: branched lysine dendrimer {[(peptide)2-Lys]2-Lys}2-Lys) [Compound B]", "values": [{"measurement": "Damage score", "setting": "SD rats; 0.25 mg/mL, 0.5 mg/kg oral gavage once per day for 30 days", "result": 24}, {"measurement": "Damage score", "setting": "SD rats; 0.75 mg/mL, 1.5 mg/kg oral gavage once per day for 30 days", "result": 18}, {"measurement": "effect on gastric bleeding induced by alcohol", "setting": "SD rats; 0.5 and 1.5 mg/kg", "result": "may reduce gastric bleeding induced by alcohol"}, {"measurement": "course of stomatitis during continued therapy", "setting": "patient", "result": "stomatitis did not worsen"}, {"measurement": "duration of pain relief", "setting": "patient", "result": "one or two hours"}, {"measurement": "pain of oral mucositis", "setting": "patient; almost immediately after application", "result": "pain was very much reduced"}]}
